In series [1] the target is human CSNK1A1 (Homo sapiens (Human), UniProt P48729). Description: CSNK1A1 high ATP assay (ADP-Glo, 1 mM ATP). In kind it is biochemical. Conditions: median, read-out: CSNK1A1 High ATP assay IC50 [mol/l] (median). The method, then: CSNK1A1-inhibitory activity of compounds of the present invention in presence of 1 mM adenosine-tri-phosphate (ATP) was quantified employing the CSNK1A1-high-ATP-assay as described in the following paragraphs. In essence, the enzyme activity is measured by quantification of the adenosine-di-phosphate (ADP), which is generated as a co-product of the enzyme reaction, via the “ADP-Glo™ Kinase Assay” kit from the company Promega. This detection system works as follows: In a first step the ATP not consumed in the kinase reaction is quantitatively converted to CAMP employing an adenylate cyclase (“ADP-Glo-reagent”), then the adenylate cyclase is stopped and the ADP generated in the kinase reaction converted to ATP which generates in a luciferase-based reaction a glow-luminescence signal (“Kinase Detection Reagent”).
Recombinant fusion protein of N-terminal Glutathion-S-Transferase (GST) and full-length human CSNK1A1, expressed by baculovirus infected insect cells and purified via Glutathion affinity chromatography, was purchased from Life Technologies (product no. PV4174) and used as enzyme. As substrate for the kinase reaction the biotinylated peptide biotin-Ahx-KRRRAL-pS-VASLPGL (C-terminus in amide form) was used which can be purchased e.g. from the company Biosyntan (Berlin-Buch, Germany).
For the assay 50 nl of a 100 fold concentrated solution of the test compound in DMSO was pipetted into a white low volume 384-well microtiter plate (Greiner Bio-One, Frickenhausen, Germany), 2 μL of a solution of CSNK1A1 in aqueous assay buffer [50 mM HEPES pH 7.5, 10% (v/v) glycerol, 10 mM MgCl2, 50 mM NaCl, 1 mM dithiothreitol, 0.01% (w/v) bovine serum albumin, 0.01% (v/v) Triton X-100] were added and the mixture was incubated for 15 min at 22° C. to allow pre-binding of the test compounds to the enzyme before the start of the kinase reaction. Then the kinase reaction was started by the addition of 3 μL of a solution of ATP (1.67 mM=>final conc. in the 5 μL assay volume is 1 mM) and peptide substrate (167 μM=>final conc. in the 5 μL assay volume is 100 μM) in assay buffer and the resulting mixture was incubated for a reaction time of 30 min at 22° C. The concentration of CSNK1A1 was adjusted depending of the activity of the enzyme lot and was chosen appropriate to have the assay in the linear range, a typical concentration is about 0.4 ng/μL. The reaction was stopped by the addition of 2.5 μL of “ADP-Glo-reagent” (1:1.5 fold diluted with water) and the resulting mixture was incubated at 22° C. for 1 h to convert the ATP not consumed in the kinase reaction completely to CAMP. Subsequently 2.5 μL of the “kinase detection reagent” (1.2 fold more concentrated than recommended by the producer) were added, the resulting mixture was incubated at 22° C. for 1 h and then the luminescence measured with a suitable measurement instrument (e.g. Viewlux™ from Perkin-Elmer). The amount of emitted light was taken as a measure for the amount of ADP generated and thereby for the activity of the CSNK1A1.
(§1) The data were normalised (enzyme reaction without inhibitor=0% inhibition, all other assay components but no enzyme=100% inhibition).

Series [2] in a line: Solubility assay (thermodynamic solubility). In kind it is physicochemical. The note with it: aqueous buffer; for solubility thermodynamic at 24 h: thermodynamic from solid, mean; for Thermodynamic Solubility [mg/l] (mean) / Thermodynamic Solubility [μmol/L] (mean): 24 h.
Series [3] has as its target human CSNK1G3 (Homo sapiens (Human), UniProt Q9Y6M4). In words: CSNK1G3 assay (ADP-Glo). In kind it is biochemical. The note with it: median, read-out: CSNK1G IC50 [mol/l] (median). The method, then:
CSNK1G3-inhibitory activity of compounds of the present invention in presence of 1 μM adenosine-tri-phosphate (ATP) was quantified employing the CSNK1G3 assay as described in the following paragraphs. In essence, the enzyme activity is measured by quantification of the adenosine-di-phosphate (ADP), which is generated as a co-product of the enzyme reaction, via the “ADP-Glo™ Kinase Assay” kit from the company Promega. This detection system works as follows: In a first step the ATP not consumed in the kinase reaction is quantitatively converted to CAMP employing an adenylate cyclase (“ADP-Glo-reagent”), then the adenylate cyclase is stopped and the ADP generated in the kinase reaction converted to ATP which generates in a luciferase-based reaction a glow-luminescence signal (“Kinase Detection Reagent”).
Recombinant fusion protein of N-terminal Glutathion-S-Transferase (GST) and full-length human CSNK1G3, expressed by baculovirus infected insect cells and purified via Glutathion affinity chromatography, was purchased from Life Technologies (product no. PV3838) and used as enzyme. As substrate for the kinase reaction the biotinylated peptide biotin-Ahx-KRRRAL-pS-VASLPGL (C-terminus in amide form) was used which can be purchased e.g. from the company Biosyntan (Berlin-Buch, Germany).
For the assay 50 nl of a 100 fold concentrated solution of the test compound in DMSO was pipetted into a white 1536-well microtiter plate (Greiner Bio-One, Frickenhausen, Germany), 2 μL of a solution of CSNK1G3 in aqueous assay buffer [50 mM HEPES pH 7.5, 10% (v/v) glycerol, 10 mM MgCl2, 50 mM NaCl, 1 mM dithiothreitol, 0.01% (w/v) bovine serum albumin, 0.01% (v/v) Triton X-100] were added and the mixture was incubated for 15 min at 22° C. to allow pre-binding of the test compounds to the enzyme before the start of the kinase reaction. Then the kinase reaction was started by the addition of 3 μL of a solution of ATP ([…]=>final conc. in the 5 μL assay volume is 1 M) and peptide substrate (50 μM=>final conc. in the 5 μL assay volume is 30 μM) in assay buffer and the resulting mixture was incubated for a reaction time of 30 min at 22° C. The concentration of CSNK1G3 was adjusted depending of the activity of the enzyme lot and was chosen appropriate to have the assay in the linear range, a typical concentration is about 0.06 ng/μL. The reaction was stopped by the addition of 2.5 μL of “ADP-Glo-reagent” (1:1.5 fold diluted with water) and the resulting mixture was incubated at 22° C. for 1 h to convert the ATP not consumed in the kinase reaction completely to CAMP. Subsequently 2.5 μL of the “kinase detection reagent” (1.2 fold more concentrated than recommended by the producer) were added, the resulting mixture was incubated at 22° C. for 1 h and then the luminescence measured with a suitable measurement instrument (e.g. Viewlux™ from Perkin-Elmer). The amount of emitted light was taken as a measure for the amount of ADP generated and thereby for the activity of the CSNK1G3.
as §1
For orientation: In ADP-Glo the light output rises with the ADP produced.

These results are taken from patent US20250188075A1, “SUBSTITUTED HETEROCYCLIC CSNK1 INHIBITORS” (The Broad Institute, Inc., priority 2022, published 2025).

Where two headings read alike, the source gives them in different places.

human CSNK1G3, sequence (Q9Y6M4 whole entry): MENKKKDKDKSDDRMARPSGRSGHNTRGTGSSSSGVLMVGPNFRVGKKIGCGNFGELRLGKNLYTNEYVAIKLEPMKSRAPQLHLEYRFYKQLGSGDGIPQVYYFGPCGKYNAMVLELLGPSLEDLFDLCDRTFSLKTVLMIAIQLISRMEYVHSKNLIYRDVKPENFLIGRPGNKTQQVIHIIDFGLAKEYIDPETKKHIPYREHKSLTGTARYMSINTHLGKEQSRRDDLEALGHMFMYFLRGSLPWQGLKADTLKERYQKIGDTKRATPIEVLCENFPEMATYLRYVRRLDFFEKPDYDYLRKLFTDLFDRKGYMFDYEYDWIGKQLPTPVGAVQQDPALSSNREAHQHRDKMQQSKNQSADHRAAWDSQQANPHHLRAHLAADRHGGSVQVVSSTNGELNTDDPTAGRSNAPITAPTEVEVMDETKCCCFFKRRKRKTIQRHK
human CSNK1A1, sequence (P48729 whole entry): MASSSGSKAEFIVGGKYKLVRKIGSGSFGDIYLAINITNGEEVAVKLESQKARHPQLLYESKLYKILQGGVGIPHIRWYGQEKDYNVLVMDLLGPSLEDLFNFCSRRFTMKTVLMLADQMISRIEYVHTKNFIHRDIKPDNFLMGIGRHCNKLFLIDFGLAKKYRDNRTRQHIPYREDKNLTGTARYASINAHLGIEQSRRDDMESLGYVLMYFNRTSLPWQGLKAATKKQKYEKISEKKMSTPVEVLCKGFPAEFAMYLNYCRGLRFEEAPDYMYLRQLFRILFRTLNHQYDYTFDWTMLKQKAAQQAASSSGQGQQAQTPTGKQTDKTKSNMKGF

In the case of `Cn1nc(CC(=O)Nc2cc(-c3[nH]c4cccnc4c3-c3ccccn3)ccn2)cc1C1CC1` [Example 29, 2-(5-cyclopropyl-1-methyl-pyrazol-3-yl)-N-[4-[3-(2-pyridyl)-^1H-pyrrolo[3,2-b]pyridin-2-yl]-2-pyridyl]acetamide], the IC50 is 188 nM in series [1] and 27.4 nM in series [3]. In addition, the solubility thermodynamic at 24 h is less than 0.1 mg/L in series [2] (read-out: Thermodynamic Solubility [mg/l] (mean)) and less than 0.22 µmol/L in series [2] (read-out: Thermodynamic Solubility [μmol/L] (mean)).
With `O=C(Nc1cc(-c2[nH]c3nccnc3c2-c2ccccn2)ccn1)[C@@H](CC(F)F)c1ccc(F)cc1` [Example C1, reference compound], the IC50 in series [1] was determined as 20.1 nM. In series [2], the “Thermodynamic Solubility [mg/l] (mean)” value is 9.60 mg/L and the “Thermodynamic Solubility [μmol/L] (mean)” value is 21.55 µmol/L. Besides, the IC50 in series [3] is 6.54 nM.
The like results for `O=C(Nc1cc(-c2[nH]c3ccc(F)nc3c2-c2ccccn2)ccn1)[C@@H](CC(F)F)c1ccc(F)cc1` [Example C2, reference compound] were, in that order, 5.27 nM, 0.20 mg/L, 0.40 µmol/L and 2.4 nM.
Consider `O=C(Nc1cc(-c2[nH]c3c(OCC(F)F)ncnc3c2-c2ccccn2)ccn1)[C@@H](CC(F)F)c1ccc(F)cc1` [Example C3, reference compound], for which the IC50 in series [1] amounted to 8.84 nM. In series [2], the “Thermodynamic Solubility [mg/l] (mean)” value is less than 0.10 mg/L and the “Thermodynamic Solubility [μmol/L] (mean)” value is less than 0.18 µmol/L. Moreover, the IC50 in series [3] turned out to be 6.22 nM.
